Legend:
[1] = Precipitation of Cloquintocet-mexyl hydrate in emulsified concentrate (EW) of Example One; type: physicochemical; settings: EW of Table E1: Aromatic 200 15.3, n-butyl lactate 15.3, ATLOX 4914 1.4, Cloquintocet-mexyl 4.2, ATLAS G-5000 2.2, water 61.6 weight percent
Method: The Following Items where Mix Together (See Table E1). [table] The Cloquintocet-mexyl was dissolved into a mixture of Aromatic 200 and n-butyl lactate. The emulsifiers were then mixed into the mixture. Finally, water was added and the mixture was turned into a emulsified concentrate (EW) by mechanical stirring. Precipitation of Cloquintocet-mexyl hydrate was not observed.

[2] = Precipitation of Cloquintocet-mexyl hydrate from A200, BL or A200+BL solutions after addition of water (Example Two); type: physicochemical; set-up: key to Cloquintocet-mexyl hydrate precipitation: “P” means that Cloquintocet-mexyl hydrate precipitated from the mixture.; “S” means that Cloquintocet-mexyl hydrate did not precipitated from the mixture; settings: about 10 weight percent water added, 4° C.
Method: CQC was dissolved into A200, BL, or a mixture of A200+BL. Thereafter, about 10 weight percent water was added to each sample based on the weight of the sample (A200+BL+CQC). Each sample was prepared at 4° C.

With CCCCCC(C)OC(=O)COc1ccc(Cl)c2cccnc12 (stereo not shown) [CQC, Cloquintocet-mexyl] the “Precipitation of Cloquintocet-mexyl hydrate” value [1] was “not observed”, the “CQC content kept in solution when mixed with water” value ([2]; 50/50 mixture of A200 and BL) was “up to 14 weight percent” and the “CQC content at which Cloquintocet-mexyl hydrate is kept in solution when mixed with water” value ([2]; A200(100%)) was “less than 7 weight percent”. For the same compound, the “CQC content at which Cloquintocet-mexyl hydrate is kept in solution when mixed with water” value ([2]; BL(100%)) was “less than 7 weight percent”, the Cloquintocet-mexyl hydrate precipitation ([2]; CQC 3 wt %, BL 100%) was “S” and the Cloquintocet-mexyl hydrate precipitation ([2]; CQC 4 wt %, A200 100%) was “S”. The Cloquintocet-mexyl hydrate precipitation ([2]; CQC 5 wt %, BL 100%) was “S”, the Cloquintocet-mexyl hydrate precipitation ([2]; CQC 6 wt %, A200 100%) was “S” and the Cloquintocet-mexyl hydrate precipitation ([2]; CQC 7 wt %, BL 100%) was “P”. For the same compound, the Cloquintocet-mexyl hydrate precipitation ([2]; CQC 8 wt %, A200 100%) was “P”, the Cloquintocet-mexyl hydrate precipitation ([2]; CQC 9 wt %, BL 100%) was “P” and the Cloquintocet-mexyl hydrate precipitation ([2]; CQC 10 wt %, A200 100%) was “P”. For the same compound, the Cloquintocet-mexyl hydrate precipitation ([2]; CQC 11 wt %, BL 100%) was “P”, the Cloquintocet-mexyl hydrate precipitation ([2]; CQC 12 wt %, A200 (12%) + BL (88%)) was “P” and the Cloquintocet-mexyl hydrate precipitation ([2]; CQC 12 wt %, A200 (50%) + BL (50%)) was “S”. The Cloquintocet-mexyl hydrate precipitation ([2]; CQC 12 wt %, A200 (88%) + BL (12%)) was “P”, the Cloquintocet-mexyl hydrate precipitation ([2]; CQC 13 wt %, BL 100%) was “P” and the Cloquintocet-mexyl hydrate precipitation ([2]; CQC 14 wt %, A200 (12%) + BL (88%)) was “P”. For the same compound, the Cloquintocet-mexyl hydrate precipitation ([2]; CQC 14 wt %, A200 (50%) + BL (50%)) was “S”, the Cloquintocet-mexyl hydrate precipitation ([2]; CQC 14 wt %, A200 (88%) + BL (12%)) was “P” and the Cloquintocet-mexyl hydrate precipitation ([2]; CQC 15.5 wt %, A200 100%) was “P”. The Cloquintocet-mexyl hydrate precipitation ([2]; CQC 15.5 wt %, A200 (12%) + BL (88%)) was “P”, the Cloquintocet-mexyl hydrate precipitation ([2]; CQC 15.5 wt %, A200 (50%) + BL (50%)) was “P” and the Cloquintocet-mexyl hydrate precipitation ([2]; CQC 15.5 wt %, A200 (88%) + BL (12%)) was “P”. The Cloquintocet-mexyl hydrate precipitation ([2]; CQC 15.5 wt %, BL 100%) was “P”.

From patent US8153557B2, “Agriculturally useful compositions” (priority 2006, dated 2012)
